How the values were obtained:
Assay type in all cases: cell-based
[1] = system: CAL-120, human breast adenocarcinoma cells; assay: Proliferation assay CAL-120 (crystal violet, 4 days); conditions: Homo sapiens, CAL-120, 96 h, CAL-120 cells, median, read-out: Prolif-CAL-120, IC50-[mol/l] (median)
Outline: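 IC50 from a 4-parameter fit of crystal violet absorbance (595 nm), scaled between the day-of-dosing plate (0%) and vehicle cells (100%). MDA-MB-231 or CAL-120 cells were treated for 4 days with 0.01–10 micromol/L compound in 0.1% DMSO after 24 h attachment.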

[2] = target: T1, CDK12 (nuclear staining in CAL-120 cells) (Homo sapiens, UniProt Q9NYV4); assay: CDK12 nuclear protein level: immunofluorescence/high content analysis (CAL-120); conditions: for DC50: CAL-120 cells, 24 h, immunofluorescence, 50% reduction of nuclear CDK12 staining intensity, median, read-out: CDK12 degradation IF, DC50- [mol/l] (median); for (IC50 CDK12 high ATP) to (Degradation DC50 CDK12) ratio: ratio of IC50 CDK12 high ATP kinase assay to DC50 CDK12 degradation (IF, CAL-120)
T1 construct: endogenous in cells; host or cells: CAL-120 human breast cancer cells (DSMZ ACC 459)
Outline: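 DC50 is the degrader concentration that halves nuclear CDK12 immunofluorescence relative to controls, measured by high-content imaging. CAL-120 cells were exposed to compound for 24 h at 37 °C before PFA fixation, and signal was normalized to DMSO and control wells.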

[3] = system: MDA-MB-231, human breast cancer cells; assay: Proliferation assay MDA-MB-231 (crystal violet, 4 days); conditions: Homo sapiens, MDA-MB-231, 96 h, MDA-MB-231 cells, median, read-out: Prolif-MDA MB-231, IC50-[mol/l] (median)
Protocol: Human tumour cells were originally obtained from the American Type Culture Collection (ATCC), or from the Deutsche Sammlung von Mikroorganismen und Zellkulturen (DSMZ, German Collection of Microorganisms and Cell Cultures). Cultivated tumour cells (CAL-120, human breast adenocarcinoma cells, DSMZ ACC-459; MDA-MB-231, human breast cancer cells, ATCC HTB-26) were plated at a density of 4,000 cells/well in a 96-well multititer plate in 200 microL of their respective growth medium supplemented 10% fetal calf serum. After 24 hours, the cells of one plate (zero-point plate) were stained with crystal violet (see below), while the medium of the other plates was supplemented with the test substances in various concentrations (0 micromol/L, as well as in the range of 0.01-10 micromol/L; the final concentration of the solvent dimethyl sulfoxide was adjusted to 0.1%) using a Tecan HP D300 Digital Dispenser. The cells were incubated for 4 days in the presence of test substances. Cell proliferation was determined by staining the cells with crystal violet: the cells were fixed by adding 20 microL/measuring point of an 11% glutaric aldehyde solution for 15 minutes at room temperature. After three washing cycles of the fixed cells with water, the plates were dried at room temperature. The cells were stained by adding 100 microL/measuring point of a 0.1% crystal violet solution (pH 3.0). After three washing cycles of the stained cells with water, the plates were dried at room temperature. The dye was dissolved by adding 100 microL/measuring point of a 10% acetic acid solution. The extinction was determined by photometry at a wavelength of 595 nm. The change of cell number, in percent, was calculated by normalization of the measured values to the extinction values of the zero-point plate (=0%) and the extinction of the untreated (0 μM) cells (=100%). The IC50 values (inhibitory concentration at 50% of maximal effect) were determined by means of a 4 parameter fit.

T1 sequence (Q9NYV4 whole entry): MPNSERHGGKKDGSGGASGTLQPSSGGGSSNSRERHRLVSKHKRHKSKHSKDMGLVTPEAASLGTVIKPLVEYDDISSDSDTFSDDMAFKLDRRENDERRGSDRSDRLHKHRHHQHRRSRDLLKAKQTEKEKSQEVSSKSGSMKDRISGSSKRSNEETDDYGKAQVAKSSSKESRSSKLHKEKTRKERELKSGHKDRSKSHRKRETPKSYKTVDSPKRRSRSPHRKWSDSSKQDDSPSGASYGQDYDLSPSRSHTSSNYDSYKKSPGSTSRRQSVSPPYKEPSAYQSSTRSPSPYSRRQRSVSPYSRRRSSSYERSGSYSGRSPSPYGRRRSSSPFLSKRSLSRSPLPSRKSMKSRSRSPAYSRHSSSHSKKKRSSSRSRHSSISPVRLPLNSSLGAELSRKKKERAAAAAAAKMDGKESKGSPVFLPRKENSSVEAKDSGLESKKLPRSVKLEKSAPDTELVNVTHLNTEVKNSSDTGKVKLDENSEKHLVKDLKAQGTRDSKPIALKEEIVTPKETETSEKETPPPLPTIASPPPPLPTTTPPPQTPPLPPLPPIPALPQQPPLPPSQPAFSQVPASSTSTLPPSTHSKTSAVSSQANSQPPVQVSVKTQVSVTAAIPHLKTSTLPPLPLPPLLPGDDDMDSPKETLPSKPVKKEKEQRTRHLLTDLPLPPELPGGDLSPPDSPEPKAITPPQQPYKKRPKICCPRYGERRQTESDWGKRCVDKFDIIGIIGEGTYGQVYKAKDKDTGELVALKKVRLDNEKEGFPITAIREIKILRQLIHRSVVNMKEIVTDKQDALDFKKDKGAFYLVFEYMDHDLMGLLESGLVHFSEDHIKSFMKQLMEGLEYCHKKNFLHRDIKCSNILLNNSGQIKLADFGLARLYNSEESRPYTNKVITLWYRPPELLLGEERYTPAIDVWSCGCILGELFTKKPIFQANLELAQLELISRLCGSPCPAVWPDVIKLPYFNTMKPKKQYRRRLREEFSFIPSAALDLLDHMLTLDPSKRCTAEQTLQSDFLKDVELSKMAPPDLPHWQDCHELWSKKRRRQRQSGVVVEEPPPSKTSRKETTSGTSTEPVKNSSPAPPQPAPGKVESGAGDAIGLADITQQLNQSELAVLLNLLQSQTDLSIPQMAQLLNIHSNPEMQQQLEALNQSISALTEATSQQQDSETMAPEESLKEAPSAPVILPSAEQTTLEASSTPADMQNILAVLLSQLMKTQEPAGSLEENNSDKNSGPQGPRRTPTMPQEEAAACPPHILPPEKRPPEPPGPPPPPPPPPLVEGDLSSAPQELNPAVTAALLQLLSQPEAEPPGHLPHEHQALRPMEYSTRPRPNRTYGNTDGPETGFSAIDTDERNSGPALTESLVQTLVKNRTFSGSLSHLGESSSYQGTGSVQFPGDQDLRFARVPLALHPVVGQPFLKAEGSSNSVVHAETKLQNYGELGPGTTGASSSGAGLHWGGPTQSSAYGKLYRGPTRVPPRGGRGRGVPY
T1 sequence (O75909 whole entry partner): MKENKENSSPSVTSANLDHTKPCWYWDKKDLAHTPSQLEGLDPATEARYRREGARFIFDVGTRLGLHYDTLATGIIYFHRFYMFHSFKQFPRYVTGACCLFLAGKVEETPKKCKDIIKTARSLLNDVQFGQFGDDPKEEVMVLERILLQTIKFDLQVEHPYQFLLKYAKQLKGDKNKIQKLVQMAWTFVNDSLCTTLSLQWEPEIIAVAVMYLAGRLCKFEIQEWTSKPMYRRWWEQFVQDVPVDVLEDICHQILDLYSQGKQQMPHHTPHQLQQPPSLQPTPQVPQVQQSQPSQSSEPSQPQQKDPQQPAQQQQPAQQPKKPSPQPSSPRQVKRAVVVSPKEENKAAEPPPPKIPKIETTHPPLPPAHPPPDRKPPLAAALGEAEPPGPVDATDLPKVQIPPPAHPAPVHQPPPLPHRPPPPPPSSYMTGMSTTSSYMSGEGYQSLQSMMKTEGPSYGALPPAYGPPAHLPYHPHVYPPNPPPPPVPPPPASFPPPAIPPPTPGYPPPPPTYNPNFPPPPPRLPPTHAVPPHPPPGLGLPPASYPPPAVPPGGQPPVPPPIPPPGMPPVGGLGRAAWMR

IC50 [1] [nM] | DC50 [2] [nM] | (IC50 CDK12 high ATP) to (Degradation DC50 CDK12) ratio [2] | IC50 [3] [nM] | Structure (SMILES)
3.3 | 0.856 | 11233 | 11.3 | COc1ccc2[nH]c(CNc3nc(N4CCN(C)CC4)nc4c(Br)cnn34)nc2c1 [Example 161, 8-bromo-N-[(5-methoxy-1H-benzimidazol-2-yl)methyl]-2-(4-methylpiperazin-1-yl)pyrazolo[1,5-a][1,3,5]triazin-4-amine]
7.69 | 5.27 | 1360 | 26.2 | C[C@H]1CN(c2nc(NCc3nnc(-c4cccc(F)c4)[nH]3)n3ncc(Br)c3n2)CCN1C [Example 154, 8-bromo-2-[(3S)-3,4-dimethylpiperazin-1-yl]-N-{[5-(3-fluorophenyl)-4H-1,2,4-triazol-3-yl]methyl}pyrazolo[1,5-a][1,3,5]triazin-4-amine]
28.2 | 5.1 | 1905 | 32.5 | C[C@@H]1CN(c2nc(NCc3nnc(-c4ccccc4)[nH]3)n3ncc(Br)c3n2)C[C@H](C)N1 [Example 127, 8-bromo-2-[(3R,5S)-3,5-dimethylpiperazin-1-yl]-N-[(5-phenyl-4H-1,2,4-triazol-3-yl)methyl]pyrazolo[1,5-a][1,3,5]triazin-4-amine]
1.78 | 0.62 | 1089 | 4.79 | Cc1ccc2[nH]c(CNc3nc(N4CCOCC4)nc4c(Br)cnn34)nc2c1 [Example 157, 8-bromo-N-[(5-methyl-1H-benzimidazol-2-yl)methyl]-2-(morpholin-4-yl)pyrazolo[1,5-a][1,3,5]triazin-4-amine]
43.4 | 0.922 | >20812 | 43 | C[C@H]1CN(c2nc(NCc3nc4ccccc4[nH]3)n3ncc(Br)c3n2)CCN1C [Example 132, N-[(1H-benzimidazol-2-yl)methyl]-8-bromo-2-[(3S)-3,4-dimethylpiperazin-1-yl]pyrazolo[1,5-a][1,3,5]triazin-4-amine]
451 | 76 | >263 | 556 | Brc1cnn2c(NCc3nc4ccccc4[nH]3)nc(N3CCN(C4CC4)CC3)nc12 [Example 138, N-[(1H-benzimidazol-2-yl)methyl]-8-bromo-2-(4-cyclopropylpiperazin-1-yl)pyrazolo[1,5-a][1,3,5]triazin-4-amine]
3.86 | 12.7 | 236 | 12.7 | Fc1cccc(-c2nnc(CNc3nc(N4CCNCC4)nc4c(Br)cnn34)[nH]2)c1 [Example 152, 8-bromo-N-{[5-(3-fluorophenyl)-4H-1,2,4-triazol-3-yl]methyl}-2-(piperazin-1-yl)pyrazolo[1,5-a][1,3,5]triazin-4-amine]
595 | 122 | 91 | 682 | CN1CCN(c2nc(NCc3nc4ccccc4[nH]3)n3ncc(Br)c3n2)CC1=O [Example 131, 4-(4-{[(1H-benzimidazol-2-yl)methyl]amino}-8-bromopyrazolo[1,5-a][1,3,5]triazin-2-yl)-1-methylpiperazin-2-one]
5.45 | 1.06 | 8849 | 20.5 | CC1CN(C)CCN1c1nc(NCc2nc3ccccc3[nH]2)n2ncc(Br)c2n1 (centres unmarked) [Example 156, N-(1H-benzimidazol-2-ylmethyl)-8-bromo-2-(2,4-dimethylpiperazin-1-yl)pyrazolo[1,5-a][1,3,5]triazin-4-amine]
1.73 | 0.521 | 18457 | 9.25 | CN1CCN(c2nc(NCc3nc4c(F)c(F)ccc4[nH]3)n3ncc(C4CC4)c3n2)CC1 [Example 159, 8-cyclopropyl-N-[(4,5-difluoro-1H-benzimidazol-2-yl)methyl]-2-(4-methylpiperazin-1-yl)pyrazolo[1,5-a][1,3,5]triazin-4-amine]
6.5 | 1.4 | 889 | 9.22 | COc1ccc2[nH]c(CNc3nc(N4CCOCC4)nc4c(Br)cnn34)nc2c1 [Example 160, 8-bromo-N-[(5-methoxy-1H-benzimidazol-2-yl)methyl]-2-(morpholin-4-yl)pyrazolo[1,5-a][1,3,5]triazin-4-amine]
125 | 4.98 | >3658 | 132 | C[C@@H]1CN(c2nc(NCc3nc4ccccc4[nH]3)n3ncc(Br)c3n2)C[C@H](C)N1C [Example 129, N-(1H-benzimidazol-2-ylmethyl)-8-bromo-2-[(3R,5S)-3,4,5-trimethylpiperazin-1-yl]pyrazolo[1,5-a][1,3,5]triazin-4-amine]
306 | 30.9 | >646 | 827 | Brc1cnn2c(NCc3nc4ccccc4[nH]3)nc(N3CCC3)nc12 [Example 143, 2-(azetidin-1-yl)-N-[(1H-benzimidazol-2-yl)methyl]-8-bromopyrazolo[1,5-a][1,3,5]triazin-4-amine]
41.7 | 3.69 | 3939 | 44 | C[C@@H]1CN(c2nc(NCc3nc4ccccc4[nH]3)n3ncc(Br)c3n2)CCN1C [Example 135, N-[(1H-benzimidazol-2-yl)methyl]-8-bromo-2-[(3R)-3,4-dimethylpiperazin-1-yl]pyrazolo[1,5-a][1,3,5]triazin-4-amine]
34.8 | 3.31 | 2547 | 35.6 | C[C@@H]1CN(c2nc(NCc3nnc(-c4ccccc4)[nH]3)n3ncc(Br)c3n2)CCN1C.O=CO [Example 130, 8-bromo-2-[(3R)-3,4-dimethylpiperazin-1-yl]-N-[(5-phenyl-4H-1,2,4-triazol-3-yl)methyl]pyrazolo[1,5-a][1,3,5]triazin-4-amine formate]
446 | 110 | 140 | 539 | FC(F)(F)CN1CCN(c2nc(NCc3nc4ccccc4[nH]3)n3ncc(Br)c3n2)CC1 [Example 139, N-[(1H-benzimidazol-2-yl)methyl]-8-bromo-2-[4-(2,2,2-trifluoroethyl)piperazin-1-yl]pyrazolo[1,5-a][1,3,5]triazin-4-amine]
110 | 6.32 | 590 | 185 | [O-][S+]1CCN(c2nc(NCc3nc4ccccc4[nH]3)n3ncc(Br)c3n2)CC1 [Example 144, 4-(4-{[(1H-benzimidazol-2-yl)methyl]amino}-8-bromopyrazolo[1,5-a][1,3,5]triazin-2-yl)-1lambda^4-thiomorpholin-1-one]

Source: patent US20230117034A1, “PYRAZOLOTRIAZINES” (Bayer Aktiengesellschaft, priority 2019, published 2023)
